Values after ≈ are worked out from the molar mass of the structure shown. “Also recorded” adds a separate entry of the source. Like-named read-outs stand apart in the source and are kept apart here.
Legend:
rodents = conditions: oral; cited from earlier work
humans = conditions: based on intravenous infusion studies; cited from earlier work
philtrum skin = philtrum skin cooling bioassay; type: in vivo, human; conditions: for cooling activity AUC in (R)-1,2-propanediol / cooling activity AUC in racemic-1,2-propanediol: ± S.E.M.; for cooling effect: applied to the philtrum
Text: The term “alcoholic solvent” refers to a chemical with one to four carbons with at least one hydroxyl group attached to a carbon atom. A reliable place for topical application is the skin above the upper lip (above the vermilion border of the lips), on the philtrum, lateral to the philtrum until the nasolabial folds, and on the lower nostrils (subnasale). This part of the face is known to be densely innervated with cold receptors, second only to the surfaces of the eyeball and anogenitalia. Tingling, cool and cold sensations from the skin may be experienced and rated for time of onset and intensity.
The intervals for recording sensations are 5 to 10 minutes, until two successive zeroes are obtained. The results (shown in the Figures) are averaged values of 4 to 6 separate trials in the same individual. The data are plotted using SigmaPlot (Systat Software, Point Richmond Calif.) and a smoothing function with a negative exponential was used for analysis and statistical fit of the results. The onset of drug action is taken as the time to reach 2 units of coolness intensity, and offset of drug action is the time when coolness intensity drops below 2, after previously surpassing 2 units. The duration of cooling action is defined as the offset time minus the onset time and the primary index of effect. […]
Using a cotton-tipped applicator (e.g. Q-tips®) 0.10 to 0.25 ml of the test solution was applied to the skin above the upper lip, on the philtrum, and lateral to the philtrum up to the nasolabial folds, and the onset and duration of cooling sensations noted. […] The interval for recording sensations was at 5 to 10 minute intervals, until at least two successive zeroes were obtained. The results were averaged values of 3 to 6 separate trials in the same individual. The “onset” is the time taken to reach a coolness intensity value of 2. […] The “off-set” is when the coolness intensity drops below 2, and the duration is the time of off-set minus the time of onset. The area under the curve (AUC) also gives an estimate of the intensity and duration of drug action and can be obtained from the plotted data using SigmaPlot (Systat Software, Point Richmond Calif.). The AUC is given in average ±S.E.M. units which is the product of cooling intensity×min.

tongue = conditions: average for 6 subjects, filter paper on dorsal tongue, 30 seconds; cited from earlier work
solubility in solvents = type: physicochemical; conditions: organic solvent or mixture
Method: Many cooling agents are more soluble in ethanol than in 1,2-propanediol. For example, W-3 and CPS-369 are soluble in absolute ethanol at >300 mg/ml and >500 mg/ml, respectively. These compounds are less soluble in 1,2-propanediol, with solubilities of about 10 mg/ml at standard conditions. To formulate liquid compositions of cooling agents, it is convenient to use up to 5% of ethanol in the total volume to dissolve the cooling agent and then add the rest as (R)-1,2-propanediol to complete the formulation without significant loss of cooling actions.

[1] = system: itch (contact dermatitis) on the scalp; test: scalp itch (contact dermatitis) case, topical application; type: in vivo, human; conditions: for sensations of coolness after application to scalp: 5 mg/ml in 1% ethanol-99% (R)-1,2-propanediol, droplet delivery; for itch after two days of applications: applications spaced approximately 10 hours apart, scalp
Method: An individual developed intense itch (contact dermatitis) on the scalp at the base of the skull after use of hair dye. A cotton-tipped stick was used to apply CPS-410 or CPS-412, 5 mg/ml dissolved in a 1% ethanol-99% (R)-1,2-propanediol, to the site of itch. The itch sensations were suppressed within 5 min of application of either solution and this effect lasted for at least 8 hr. In a second experiment, the solutions were applied using a plastic bottle with a conical Yorker spout. This allowed more precise droplet delivery of the solution to the site of itch. […] The advantage of liquid formulation is the ease of uniform delivery to the inflamed site, a method not achievable with cream or ointment. Itch symptoms of hair and fur occur in seborrheic dermatitis, psoriasis, insect bites, canine pruritus, and allergic dermatitis. Liquid formulations containing (R)-1,2-propanediol and a cooling agent may be therapeutically valuable in these conditions.

TRP-M8 receptor = TRP-M8 receptor (Homo sapiens, UniProt Q7Z2W7); conditions: cited from earlier work
Sequence of TRP-M8 receptor (Q7Z2W7 whole entry): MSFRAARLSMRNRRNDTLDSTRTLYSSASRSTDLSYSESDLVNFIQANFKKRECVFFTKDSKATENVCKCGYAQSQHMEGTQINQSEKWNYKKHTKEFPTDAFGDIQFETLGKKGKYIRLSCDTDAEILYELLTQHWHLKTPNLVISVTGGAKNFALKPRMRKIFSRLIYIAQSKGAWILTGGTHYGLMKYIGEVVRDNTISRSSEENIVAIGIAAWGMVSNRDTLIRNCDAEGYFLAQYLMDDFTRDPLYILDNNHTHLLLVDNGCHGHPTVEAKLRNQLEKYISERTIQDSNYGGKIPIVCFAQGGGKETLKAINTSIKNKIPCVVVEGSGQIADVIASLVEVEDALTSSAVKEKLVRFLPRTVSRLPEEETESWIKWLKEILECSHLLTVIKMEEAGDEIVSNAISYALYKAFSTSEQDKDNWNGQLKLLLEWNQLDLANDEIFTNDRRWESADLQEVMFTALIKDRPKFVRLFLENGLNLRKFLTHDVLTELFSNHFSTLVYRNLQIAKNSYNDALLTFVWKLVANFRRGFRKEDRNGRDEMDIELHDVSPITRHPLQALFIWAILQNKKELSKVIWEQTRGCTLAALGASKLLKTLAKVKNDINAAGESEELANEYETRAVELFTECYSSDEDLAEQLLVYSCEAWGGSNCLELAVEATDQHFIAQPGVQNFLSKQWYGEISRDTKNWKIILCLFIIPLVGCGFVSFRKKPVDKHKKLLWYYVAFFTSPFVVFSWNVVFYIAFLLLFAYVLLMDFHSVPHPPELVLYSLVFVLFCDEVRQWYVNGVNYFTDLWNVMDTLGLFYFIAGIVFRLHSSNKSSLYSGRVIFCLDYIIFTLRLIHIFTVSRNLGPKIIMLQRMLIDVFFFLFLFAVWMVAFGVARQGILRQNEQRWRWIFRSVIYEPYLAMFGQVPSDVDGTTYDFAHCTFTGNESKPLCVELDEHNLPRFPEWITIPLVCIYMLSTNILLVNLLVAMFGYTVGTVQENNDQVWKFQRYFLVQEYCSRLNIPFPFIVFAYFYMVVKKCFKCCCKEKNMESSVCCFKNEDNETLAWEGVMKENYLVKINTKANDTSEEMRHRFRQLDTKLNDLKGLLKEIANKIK

[2] = system: axillary skin lesion of plaque psoriasis; test: plaque psoriasis case, axillary skin lesion itch and burning; type: in vivo, human; conditions: same patient, subsequent treatment
Text: A person with an 8-year history of plaque psoriasis complained of an axillary skin lesion that itched, had burning sensations, and kept them awake at night. Their condition was severe and chronic. Their parent complained that they had to vacuum their bedroom every day in order to remove flaking skin debris. […] They volunteered to try CPS-148, 2% dissolved in 1% ethanol-99% (R)-1,2-propanediol, and was given instructions on how to apply the solution to their site of itch with a swab stick (Q-tip™). They claimed after the first time of application at night the burning sensations and itch disappeared within 5 to 10 min and they were able to have a good night's sleep. They continued to use the solution on an “as-needed basis” for one month and claimed that they slept much better than before.

[3] = CPS-369 at 10 mg/ml dissolved in the named solvent, applied to philtrum skin, based on AUC, inactive = coolness intensity did not exceed 2 units
[4] = absolute ethanol, read-out: solubility in absolute ethanol
[5] = 1,2-propanediol, standard conditions, read-out: solubility in 1,2-propanediol
[6] = 5 mg/ml, (R)-1,2-propanediol with 1% ethanol vol/vol, philtrum
[7] = 5 mg/ml, racemic 1,2-propanediol with 1% ethanol vol/vol, philtrum

CC(O)CO (racemic) [racemic 1,2-propanediol, 1,2-propanediol]
median lethal dose (rodents): about 25 ml/kg of body weight | estimated “safe” dose (humans): 1 g per kg body weight per day

CC(O)CCO (racemic) [racemic 1,3-butanediol, 1,3-butanediol]
Cooling Activity % (relative to (R)-1,2-propanediol) (philtrum skin; [3]): 10% | Cooling Activity % (relative to (R)-1,2-propanediol) (philtrum skin; in vivo): significant loss of cooling activity

CC1CCC(C(C)C)C(O)C1 (single isomer, unassigned; (-)) [(−)-menthol]
Threshold (amount producing cooling sensations on the tongue), average (tongue): 0.25 µg

OCCCO [1,3-propanediol]
Cooling Activity % (relative to (R)-1,2-propanediol) (philtrum skin; [3]): significant loss of cooling activity; also recorded: inactive

C[C@H](O)CO [(S)-1,2-propanediol]
Cooling Activity % (relative to (R)-1,2-propanediol) (philtrum skin; [3]): 47%

CCCCCCP(=O)(C(C)CC)C(C)CC (stereo not drawn) [CPS-147, 1-(Di-sec-butyl-phosphinoyl)-hexane]
cooling activity AUC in (R)-1,2-propanediol (philtrum skin; 3 mg/ml, (R)-1,2-propanediol with 2% ethanol vol/vol, philtrum): 81 ± 4 cooling intensity × min | cooling activity AUC in racemic-1,2-propanediol (philtrum skin; 3 mg/ml, racemic 1,2-propanediol with 2% ethanol vol/vol, philtrum): 64 ± 4 cooling intensity × min

CCCCCCCP(=O)(C(C)CC)C(C)CC (stereo not drawn) [CPS-148, 1-(Di-sec-butyl-phosphinoyl)-heptane]
cooling activity AUC in (R)-1,2-propanediol (philtrum skin; 2 mg/ml, (R)-1,2-propanediol with 1% ethanol vol/vol, philtrum): 173 ± 15 cooling intensity × min | cooling activity AUC in racemic-1,2-propanediol (philtrum skin; 2 mg/ml, racemic 1,2-propanediol with 1% ethanol vol/vol, philtrum): 75 ± 6 cooling intensity × min

CCOC(=O)[C@@H](C)NC(=O)[C@@H]1C[C@H](C)CC[C@H]1C(C)C [CPS-369, (R)-2-[((1R,2S,5R)-2-isopropyl-5-methyl-cyclohexanecarbonyl)-amino]-propionic acid ethyl ester]
solubility (solubility in solvents; [4]): > 500000 µg/mL | solubility (solubility in solvents; [5]): ~10000 µg/mL (≈ 35.3 mM) | cooling activity AUC in (R)-1,2-propanediol (philtrum skin; [6]): 218 ± 12 cooling intensity × min | cooling activity AUC in racemic-1,2-propanediol (philtrum skin; [7]): 134 ± 16 cooling intensity × min

CCCOC(=O)[C@@H](C)NC(=O)[C@@H]1C[C@H](C)CC[C@H]1C(C)C [CPS-410, (R)-2-[((1R,2S,5R)-2-isopropyl-5-methyl-cyclohexanecarbonyl)-amino]-propionic acid n-propyl ester]
cooling activity AUC in (R)-1,2-propanediol (philtrum skin; [6]): 281 ± 7 cooling intensity × min | cooling activity AUC in racemic-1,2-propanediol (philtrum skin; [7]): 122 ± 12 cooling intensity × min | sensations of coolness after application to scalp [1]: produced sensations of coolness | itch after two days of applications [1]: no longer present

CCCCOC(=O)[C@@H](C)NC(=O)[C@@H]1C[C@H](C)CC[C@H]1C(C)C [CPS-412, (R)-2-[((1R,2S,5R)-2-isopropyl-5-methyl-cyclohexanecarbonyl)-amino]-propionic acid n-butyl ester]
cooling activity AUC in (R)-1,2-propanediol (philtrum skin; [6]): 243 ± 5 cooling intensity × min | cooling activity AUC in racemic-1,2-propanediol (philtrum skin; [7]): 127 ± 10 cooling intensity × min | sensations of coolness after application to scalp [1]: less noticeable | itch after two days of applications [1]: no longer present

C[S+](C)[O-] [Dimethylsulfoxide]
in vitro inhibition of TRP-M8 response relative to alcohols (TRP-M8 receptor; Benedikt et al. 2007): less inhibitory

CCNC(=O)C1CC(C)CCC1C(C)C (stereo not drawn) [WS-3, 2-Isopropyl-5-methyl-cyclohexanecarboxylic acid ethylamide]
solubility (solubility in solvents; [4]): > 300000 µg/mL | solubility (solubility in solvents; [5]): ~10000 µg/mL (≈ 47.3 mM) | cooling effect (philtrum skin; 20 mg/ml in absolute ethanol): did not produce significant cooling | cooling activity AUC in (R)-1,2-propanediol (philtrum skin; 20 mg/ml, (R)-1,2-propanediol with 3% ethanol vol/vol, philtrum): 122 ± 8 cooling intensity × min | cooling activity AUC in racemic-1,2-propanediol (philtrum skin; 20 mg/ml, racemic 1,2-propanediol with 3% ethanol vol/vol, philtrum): 64 ± 6 cooling intensity × min

CCOC(=O)CNC(=O)[C@@H]1C[C@H](C)CC[C@H]1C(C)C [WS-5, [((1R,2S,5R)-2-isopropyl-5-methyl-cyclohexanecarbonyl)-amino]-acetic acid ethyl ester]
cooling effect (philtrum skin; 10 mg/ml in 100% ethanol): did not produce any cooling effect

CCO [ethanol]
Cooling Activity % (relative to (R)-1,2-propanediol) (philtrum skin; [3]): loss of cooling activity; also recorded: inactive | TRP-M8 receptor response to (−)-menthol (TRP-M8 receptor; 3% concentration of ethanol): almost totally lost

CC(C)O [isopropanol]
Cooling Activity % (relative to (R)-1,2-propanediol) (philtrum skin; [3]): loss of cooling activity; also recorded: inactive

(R)-1,2-propanediol
reversal of ethanol inhibition of WS-5 cooling (philtrum skin; added at 10%, 20% and 40% vol/vol to ethanolic solution of WS-5 10 mg/ml, philtrum): reversed the ethanol inhibition in a dose-dependent relationship

Enbrel®
psoriatic condition after a course of treatment [2]: improved considerably

n-propanol
Cooling Activity % (relative to (R)-1,2-propanediol) (philtrum skin; [3]): loss of cooling activity; also recorded: inactive

Source: patent US8529915B2, “(R)-(-)-1,2-propanediol compositions and methods” (priority 2010, dated 2013)
